In one assay the target is mCB2 receptor (Mus musculus (Mouse), UniProt P47936). The experiment in a line: mCB2 competition-equilibrium binding with [3H]CP-55,940, membranes of HEK293 cells expressing mCB2. To be noted: HEK293 cells expressing mCB2, [3H]CP-55,940; read-out: mCB2 Ki. As for the experimental part: (§1) HEK293 cells expressing hCB1 or hCB2 or mCB2 receptor are used for membrane preparations according to Abadji et al. The resulting pellet is resuspended in 10 mM Tris-chloride, pH 7.4, with 5 mM MgCl2 and 2 mM EDTA (TME), rapidly frozen in liquid nitrogen and stored at −80° C. for no longer than two months. Protein content is assayed by using the Bio-Rad protein assay according to the manufacturer's protocol.
(§2) All the cannabinoids discussed in this invention are tested for their ability to bind to CB1 and CB2 receptors using membranes from rat brain or HEK293 cells expressing either mCB2 or hCB2, respectively via competition-equilibrium binding using [^3H]CP-55,940. Results are analyzed using nonlinear regression to determine ligand IC50 (Prism by GraphPad Software, Inc.), and Ki values are calculated from the IC50. IC50 and Ki values are determined from at least three independent experiments.

The target in another assay is CB1 receptor (Rattus norvegicus (Rat), UniProt P20272). The experiment in a line: rCB1 competition-equilibrium binding with [3H]CP-55,940, rat brain membranes. The settings on record: rat brain membranes, [3H]CP-55,940; read-out: rCB1 Ki. As to the method: Frozen rat brains (CB1 source) are obtained from Pel-Freeze Biologicals (Rogers, Ak.) and stored at −80° C. until use. Membranes are prepared according to the method described by Dodd et al. and used in our laboratory as reported.
as §2

The target of another assay is hCB2 receptor (Homo sapiens (Human), UniProt P34972). In words: hCB2 competition-equilibrium binding with [3H]CP-55,940, membranes of HEK293 cells expressing hCB2. The settings on record: HEK293 cells expressing hCB2, [3H]CP-55,940; read-out: hCB2 Ki. As for the experimental part:
as §1, §2

In general, Ki refers to a dissociation constant, usually derived from enzyme kinetics or from competition with a known ligand. For `CCCCCNC(=O)C(C)(C)c1cc(O)c2c(c1)OC(C)(C)[C@@H]1CC=C(C)C[C@@H]21` [Compound 1.31, 2-((6aR,10aR)-6a,7,10,10a-tetrahydro-1-hydroxy-6,6,9-trimethyl-6H-benzo[c]chromen-3-yl)-2-methyl-N-pentylpropanamide], the Ki was 9.2 nM on mCB2 receptor, 6.3 nM at CB1 receptor and 2.8 nM on hCB2 receptor.
Taken in the same sequence, the figures for `CCOC(=O)C(C)(C)c1cc(O)c2c(c1)OC(C)(C)[C@@H]1CC=C(C)C[C@@H]21` [Compound 1.35, Ethyl-2-((6aR,10aR)-6a,7,10,10a-tetrahydro-1-hydroxy-6,6,9-trimethyl-6H-benzo[c]chromen-3-yl)-2-methylpropanoate] were 0.5 nM, 2.7 nM and 1.5 nM.
In the same order, the values of `CC1=CC[C@@H]2[C@@H](C1)c1c(O)cc(C(C)(C)C(=O)OCCBr)cc1OC2(C)C` [Compound 1.36, 2-bromoethyl-2-((6aR,10aR)-6a,7,10,10a-tetrahydro-1-hydroxy-6,6,9-trimethyl-6H-benzo [c]chromen-3-yl)-2-methylpropanoate] are 3.2 nM, 2.9 nM and 7.7 nM.
In the same order, the values of `CC(C)(C(=O)O)c1cc(O)c2c(c1)OC(C)(C)[C@@H]1CC=C(CO)C[C@@H]21` [Compound 2.1, 2-((6aR, 10aR)-6a,7,10,10a-tetrahydro-1-hydroxy-9-(hydroxymethyl)-6,6-dimethyl-6H-benzo[c]chromen-3-yl)-2-methylpropanoic Acid] are over 10000 nM, over 10000 nM and over 10000 nM.
With `CC1(C)Oc2cc(CC(=O)O)cc(O)c2[C@@H]2CC(=O)CC[C@H]21` [Compound 3.1, 2-((6aR,10aR)-6a,7,8,9,10,10a-hexahydro-1-hydroxy-6,6-dimethyl-9-oxo-6H-benzo[c]chromen-3-yl)acetic acid], the Ki on mCB2 receptor, on CB1 receptor and at hCB2 receptor was over 10000 nM each time.
Turning to `CCCCOC(=O)Cc1cc(O)c2c(c1)OC(C)(C)[C@@H]1CCC(=O)C[C@@H]21` [Compound 3.2, Butyl-2-((6aR,10aR)-6a,7,8,9,10,10a-hexahydro-1-hydroxy-6,6-dimethyl-9-oxo-6H-benzo[c]chromen-3-yl)acetate], the Ki at mCB2 receptor, on CB1 receptor and at hCB2 receptor was 1000 nM throughout.
With `CC(C)(C(=O)O)c1cc(O)c2c(c1)OC(C)(C)[C@@H]1CCC(=O)C[C@@H]21` [Compound 3.3, 2-((6aR,10aR)-6a,7,8,9,10,10a-hexahydro-1-hydroxy-6,6-dimethyl-9-oxo-6H-benzo[c]chromen-3-yl)-2-methylpropanoic Acid], the Ki at mCB2 receptor, on CB1 receptor and at hCB2 receptor was over 10000 nM in each case.
Consider `CCCCOC(=O)C(C)(C)c1cc(O)c2c(c1)OC(C)(C)[C@@H]1CCC(=O)C[C@@H]21` [Compound 3.4, Butyl-2-((6aR,10aR)-6a,7,8,9,10,10a-hexahydro-1-hydroxy-6,6-dimethyl-9-oxo-6H-benzo[c]chromen-3-yl)-2-methylpropanoate], for which the Ki on mCB2 receptor is 7.2 nM; on CB1 receptor, 2.2 nM; on hCB2 receptor, 6.2 nM.
In the same order, the values of `CC(C)(C(=O)O)c1cc(O)c2c(c1)OC(C)(C)[C@@H]1CC[C@@H](O)C[C@@H]21` [Compound 3.5, 2-((6aR,9R,10aR)-6a,7,8,9,10,10a-hexahydro-1,9-dihydroxy-6,6-dimethyl-6H-benzo[c]chromen-3-yl)-2-methylpropanoic Acid] are over 10000 nM, over 10000 nM and over 10000 nM.
Taken in the same sequence, the figures for `CC(C)(C(=O)O)c1cc(O)c2c(c1)OC(C)(C)[C@@H]1CC[C@H](O)C[C@@H]21` [Compound 3.7, 2-((6aR,9S,10aR)-6a,7,8,9,10,10a-hexahydro-1,9-dihydroxy-6,6-dimethyl-6H-benzo[c]chromen-3-yl)-2-methylpropanoic Acid] were over 10000 nM, over 10000 nM and over 10000 nM.

The values above are taken from patent US10882838B2, “Cannabinergic compounds and uses thereof” (Northeastern University, priority 2012, dated 2021).
